This is an account of results in the supplement of paper PMC6045584.

± gives the standard deviation of the averaged measurements.

Compound in one test: Oc1nc(-c2ccc(C(F)(F)F)cc2)nc2c1CSCC2 [XAV-939]
The experiment in a line: surviving fraction relative to DMSO-only wells; higher = less growth inhibition. Conditions: exposure time: 5 days. The essentials: (§1)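 For each tumour cell line, log-phase cells were put into 384-well plates at 250–500 cells per well, then after 24 hours exposed continuously for five days to inhibitors at 0.5, 1, 5, 10, 50, 100, 500 and 1000 nM. Viability was assessed by CellTiter-Glo luminescence, with surviving fraction expressed relative to the median of DMSO-only wells. Lines were screened three times and retained only if replicate Pearson r exceeded 0.7 and median Z' exceeded 0.3.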

Compound in another test: COc1cc2c(Oc3ccc(NC(=O)C4(C(=O)Nc5ccc(F)cc5)CC4)cc3F)ccnc2cc1OCCCN1CCOCC1 [FORETINIB]
The description is as above. Conditions: exposure time: 5 days. The essentials: as §1

On to HCC38 BREAST, for which the surviving fraction came to 0.824 ± 0.32 in the test with XAV-939 (0.5 nM); 0.996 ± 0.18 in the test with XAV-939 (1 nM); 1.01 ± 0.2 with XAV-939 (5 nM); 1.07 ± 0.23 with XAV-939 (10 nM); 0.983 ± 0.034 with XAV-939 (50 nM); 0.925 ± 0.15 with XAV-939 (100 nM). Further, the surviving fraction with XAV-939 (500 nM) came out at 0.895 ± 0.085; in the test with XAV-939 (1000 nM), 0.855 ± 0.12; with FORETINIB (0.5 nM) it was 1.05 ± 0.18; with FORETINIB (1 nM), 1.01 ± 0.34; with FORETINIB (5 nM) it was 0.885 ± 0.2; with FORETINIB (10 nM) it was 1.11 ± 0.24. The surviving fraction with FORETINIB (50 nM) stood at 1.03 ± 0.41; in the test with FORETINIB (100 nM) it was 0.901 ± 0.15; with FORETINIB (500 nM), 0.521 ± 0.077; with FORETINIB (1000 nM) it was 0.428 ± 0.12.

Turning to HMLE3 BREAST, the surviving fraction with XAV-939 (0.5 nM) is 0.921 ± 0.048; with XAV-939 (1 nM), 0.956 ± 0.028; in the test with XAV-939 (5 nM) it was 0.97 ± 0.036; in the test with XAV-939 (10 nM), 0.969 ± 0.059; with XAV-939 (50 nM), 0.986 ± 0.047; with XAV-939 (100 nM), 0.984 ± 0.078. Moreover, the surviving fraction with XAV-939 (500 nM) amounted to 0.775 ± 0.054; in the test with XAV-939 (1000 nM) it was 0.734 ± 0.037; with FORETINIB (0.5 nM) it was 1.08 ± 0.031; in the test with FORETINIB (1 nM), 1.15 ± 0.075; in the test with FORETINIB (5 nM), 1.11 ± 0.023; with FORETINIB (10 nM) it was 1.07 ± 0.011. Besides, the surviving fraction in the test with FORETINIB (50 nM) turned out to be 0.913 ± 0.1; in the test with FORETINIB (100 nM), 0.86 ± 0.054; with FORETINIB (500 nM), 0.558 ± 0.076; in the test with FORETINIB (1000 nM) it was 0.168 ± 0.023.

In the case of HMT3552 BREAST, the surviving fraction in the test with XAV-939 (0.5 nM) was 1.1; in the test with XAV-939 (1 nM) it was 1.12; with XAV-939 (5 nM) it was 1.1; with XAV-939 (10 nM), 1.02; in the test with XAV-939 (50 nM) it was 1.18; in the test with XAV-939 (100 nM), 1.1. For the same test system, the surviving fraction was determined as 1.07 in the test with XAV-939 (500 nM); 1.09 with XAV-939 (1000 nM); 1.02 ± 0.069 with FORETINIB (0.5 nM); 1.03 ± 0.05 with FORETINIB (1 nM); 1.02 ± 0.017 with FORETINIB (5 nM); 0.928 ± 0.12 with FORETINIB (10 nM). Besides, the surviving fraction amounted to 0.955 ± 0.058 in the test with FORETINIB (50 nM), 0.971 ± 0.013 with FORETINIB (100 nM), 0.599 ± 0.034 in the test with FORETINIB (500 nM) and 0.114 ± 0.0027 with FORETINIB (1000 nM).

Turning to HS578T BREAST, the surviving fraction in the test with XAV-939 (0.5 nM) was found to be 1.16 ± 0.15; with XAV-939 (1 nM), 1.03 ± 0.2; with XAV-939 (5 nM), 1.14 ± 0.064; with XAV-939 (10 nM) it was 1.33 ± 0.062; with XAV-939 (50 nM), 1.14 ± 0.13; with XAV-939 (100 nM) it was 1.21 ± 0.058. Moreover, the surviving fraction with XAV-939 (500 nM) was 1.09 ± 0.069; with XAV-939 (1000 nM) it was 0.972 ± 0.016; with FORETINIB (0.5 nM) it was 1.01 ± 0.084; with FORETINIB (1 nM), 1.09 ± 0.079; in the test with FORETINIB (5 nM) it was 1.2 ± 0.19; with FORETINIB (10 nM), 1.18 ± 0.038. Moreover, the surviving fraction with FORETINIB (50 nM) was 1.16 ± 0.17; with FORETINIB (100 nM), 1.12 ± 0.21; with FORETINIB (500 nM) it was 0.655 ± 0.088; in the test with FORETINIB (1000 nM), 0.585 ± 0.039.

As to HCC70 BREAST, the surviving fraction in the test with XAV-939 (0.5 nM) was found to be 1.02 ± 0.083; with XAV-939 (1 nM), 1.09 ± 0.11; with XAV-939 (5 nM), 1.07 ± 0.026; in the test with XAV-939 (10 nM) it was 1.13 ± 0.067; with XAV-939 (50 nM), 1.13 ± 0.029; with XAV-939 (100 nM), 1.12 ± 0.11. Further, the surviving fraction was found to be 0.871 ± 0.091 with XAV-939 (500 nM); 0.829 ± 0.12 with XAV-939 (1000 nM); 1.08 ± 0.04 with FORETINIB (0.5 nM); 1.13 ± 0.023 in the test with FORETINIB (1 nM); 1.13 ± 0.043 in the test with FORETINIB (5 nM); 1.11 ± 0.046 in the test with FORETINIB (10 nM). The surviving fraction with FORETINIB (50 nM) was 1.17 ± 0.066; with FORETINIB (100 nM), 1.2 ± 0.044; in the test with FORETINIB (500 nM) it was 1.1 ± 0.1; with FORETINIB (1000 nM) it was 0.718 ± 0.16.

G292 BONE: the surviving fraction with XAV-939 (0.5 nM) turned out to be 0.788 ± 0.26; in the test with XAV-939 (1 nM), 0.995 ± 0.045; with XAV-939 (5 nM), 0.96 ± 0.043; with XAV-939 (10 nM) it was 0.963 ± 0.066; with XAV-939 (50 nM), 0.818 ± 0.27; with XAV-939 (100 nM) it was 0.965 ± 0.04. In addition, the surviving fraction with XAV-939 (500 nM) came to 0.917 ± 0.027; with XAV-939 (1000 nM), 0.874 ± 0.046; with FORETINIB (0.5 nM) it was 1.01 ± 0.049; with FORETINIB (1 nM), 0.963 ± 0.051; with FORETINIB (5 nM) it was 1.04 ± 0.015; with FORETINIB (10 nM), 1.02 ± 0.046. Further, the surviving fraction turned out to be 0.905 ± 0.03 with FORETINIB (50 nM), 0.839 ± 0.023 with FORETINIB (100 nM), 0.351 ± 0.018 with FORETINIB (500 nM) and 0.171 ± 0.02 with FORETINIB (1000 nM).
